# Assay results: US20210300936A1, “PYRAZOLOTRIAZOLOPYRIMIDINE DERIVATIVES AS A2A RECEPTOR ANTAGONIST” (BEIGENE, LTD., priority 2018, published 2021)
# Molecular target: human A2A receptor (A2AR) (Homo sapiens, UniProt P29274)
# Assay: Luciferase reporter assay (HEK293-A2AR-luc2p/CRE/Hygro cells, 3 nM CGS21680)
# Assay type: cell-based
# Conditions: 3 nM CGS21680, 5 h incubation
# Protocol: HEK293 cells were maintained in Dulbecco's modified Eagle's medium (DMEM, Gibco) supplemented with 10% fetal bovine serum (FBS, Thermo Scientific), 100 units/mL penicillin (Gibco), and 0.1 mg/mL streptomycin (Gibco) in a humidified 37° C. environment with 5% C02. Plasmid encoding wild-type human A2A receptor (A2AR) (in pcDNA3.1) was synthesized by Genscript (Nanjing, China). Transfection of the plasmids was performed in 6-well plates with 4×10^5 cells using Lipofectamin 2000 (ThermoFisher Scientific) according to the instruction of the manufacturer. Cell clones that stably express A2AR were established and maintained in the same complete medium as the HEK293 cells in addition of G-418 (Gibico). Expression level of A2AR in each single cell clone was determined using immunoblotting and FACS method. HEK293-A2AR stable cells were then transfected with pGL4.29[luc2P/CRE/Hygro] (Promega) luciferase reporter plasmid for establishing the HEK293-A2AR-luc2p/CRE/Hygro stable cell line.
# HEK293-A2AR-luc2p/CRE/Hygro cells were seeded at a density of 5,000 cells/well in DMEM with 1% FBS and 1 U/mL adenosine deaminase (ADA) (Sigma). After 18 h, the cells were treated with 3 nM CGS21680 plus a series dilution of A2AR antagonist, the compounds disclosed herein at the concentration of 0.1˜10000 nM, prepared in DMEM with 1% FBS. After 5 h incubation, the luciferase activity in cells were measured using the Bright-Glo Luciferase Assay System (Promega) according to manufacturer's instructions. The luminescence signal was measured using a PHERAstar FS plate reader (BMG Labtech). […] Maximal luminescence intensity was determined in the presence of 3 nM CGS21680 and was set as 100%. The IC50 value was calculated from a dose dependent inhibition curve across the range of compound concentrations.
# Chain of human A2A receptor (A2AR) (P29274 whole entry): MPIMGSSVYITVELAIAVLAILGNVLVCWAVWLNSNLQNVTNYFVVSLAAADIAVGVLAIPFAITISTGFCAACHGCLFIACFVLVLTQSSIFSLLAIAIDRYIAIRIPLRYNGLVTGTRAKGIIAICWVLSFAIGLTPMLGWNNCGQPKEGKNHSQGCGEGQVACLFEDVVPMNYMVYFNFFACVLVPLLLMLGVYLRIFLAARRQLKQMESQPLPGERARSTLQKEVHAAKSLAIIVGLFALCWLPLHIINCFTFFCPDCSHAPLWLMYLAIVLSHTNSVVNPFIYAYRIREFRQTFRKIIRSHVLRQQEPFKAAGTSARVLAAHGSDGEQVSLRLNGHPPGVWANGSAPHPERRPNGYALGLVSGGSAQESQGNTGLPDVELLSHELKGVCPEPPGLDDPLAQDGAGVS
row,SMILES,IC50 [nM]
1,"CC(C(=O)N1CCN(c2ccc(OCCN)cc2)CC1)n1ncc2c1nc(N)n1nc(-c3ccco3)nc21 (centres unmarked) [Compound A7, 2-(5-amino-2-(furan-2-yl)-7H-pyrazolo[4,3-e][1,2,4]triazolo[1,5-c]pyrimidin-7-yl)-1-(4-(4-(2-aminoethoxy)phenyl)piperazin-1-yl)propan-1-one]",23.1
2,"CCC(C(=O)N1CCN(c2ccc(OCCOCCOC)cc2)CC1)n1ncc2c1nc(N)n1nc(-c3ccco3)nc21 (centres unmarked) [Compound A8, 2-(5-amino-2-(furan-2-yl)-7H-pyrazolo[4,3-e][1,2,4]triazolo[1,5-c]pyrimidin-7-yl)-1-(4-(4-(2-(2-methoxyethoxy)ethoxy)phenyl)piperazin-1-yl)butan-1-one]",41.5
3,"COCCOCCOc1ccc(N2CCN(C(=O)C(C)n3ncc4c3nc(N)n3nc(-c5ccco5)nc43)CC2)cc1 (centres unmarked) [Compound A9, 2-(5-amino-2-(furan-2-yl)-7H-pyrazolo[4,3-e][1,2,4]triazolo[1,5-c]pyrimidin-7-yl)-1-(4-(4-(2-(2-methoxyethoxy)ethoxy)phenyl)piperazin-1-yl)propan-1-one]",59.1
4,"CCCCC(C(=O)N1CCN(c2ccc(OCCOC)cc2)CC1)n1ncc2c1nc(N)n1nc(-c3ccco3)nc21 (centres unmarked) [Compound A10, 2-(5-amino-2-(furan-2-yl)-7H-pyrazolo[4,3-e][1,2,4]triazolo[1,5-c]pyrimidin-7-yl)-1-(4-(4-(2-methoxyethoxy)phenyl)piperazin-1-yl)hexan-1-one]",6.3
5,"CCCCC(C(=O)N1CCN(c2ccc(OCCOCCOC)cc2)CC1)n1ncc2c1nc(N)n1nc(-c3ccco3)nc21 (centres unmarked) [Compound A11, 2-(5-amino-2-(furan-2-yl)-7H-pyrazolo[4,3-e][1,2,4]triazolo[1,5-c]pyrimidin-7-yl)-1-(4-(4-(2-(2-methoxyethoxy)ethoxy)phenyl)piperazin-1-yl)hexan-1-one]",6.9
6,"COCCOCCOc1ccc(N2CCN(C(=O)C(C(C)C)n3ncc4c3nc(N)n3nc(-c5ccco5)nc43)CC2)cc1 (centres unmarked) [Compound A12, 2-(5-amino-2-(furan-2-yl)-7H-pyrazolo[4,3-e][1,2,4]triazolo[1,5-c]pyrimidin-7-yl)-1-(4-(4-(2-(2-methoxyethoxy)ethoxy)phenyl)piperazin-1-yl)-3-methylbutan-1-one]",113
7,"COCCOc1ccc(N2CCN(C(=O)C(c3ccccc3)n3ncc4c3nc(N)n3nc(-c5ccco5)nc43)CC2)cc1 (centres unmarked) [Compound A13, 2-(5-amino-2-(furan-2-yl)-7H-pyrazolo[4,3-e][1,2,4]triazolo[1,5-c]pyrimidin-7-yl)-1-(4-(4-(2-methoxyethoxy)phenyl)piperazin-1-yl)-2-phenylethan-1-one]",2.9
8,"COCCOCCOc1ccc(N2CCN(C(=O)C(c3ccccc3)n3ncc4c3nc(N)n3nc(-c5ccco5)nc43)CC2)cc1 (centres unmarked) [Compound A14, 2-(5-amino-2-(furan-2-yl)-7H-pyrazolo[4,3-e][1,2,4]triazolo[1,5-c]pyrimidin-7-yl)-1-(4-(4-(2-(2-methoxyethoxy)ethoxy)phenyl)piperazin-1-yl)-2-phenylethan-1-one]",12.7
9,"COCCOc1ccc(N2CCN(C(=O)C(C3CC3)n3ncc4c3nc(N)n3nc(-c5ccco5)nc43)CC2)cc1 (centres unmarked) [Compound A15, 2-(5-amino-2-(furan-2-yl)-7H-pyrazolo[4,3-e][1,2,4]triazolo[1,5-c]pyrimidin-7-yl)-2-cyclopropyl-1-(4-(4-(2-methoxyethoxy)phenyl)piperazin-1-yl)ethan-1-one]",8.4
10,"COCCOc1ccc(N2CCN(C(=O)C(CC(C)C)n3ncc4c3nc(N)n3nc(-c5ccco5)nc43)CC2)cc1 (centres unmarked) [Compound A16, 2-(5-amino-2-(furan-2-yl)-7H-pyrazolo[4,3-e][1,2,4]triazolo[1,5-c]pyrimidin-7-yl)-1-(4-(4-(2-methoxyethoxy)phenyl)piperazin-1-yl)-4-methylpentan-1-one]",1.3
11,"COCCOCCOc1ccc(N2CCN(C(=O)C(CC(C)C)n3ncc4c3nc(N)n3nc(-c5ccco5)nc43)CC2)cc1 (centres unmarked) [Compound A17, 2-(5-amino-2-(furan-2-yl)-7H-pyrazolo[4,3-e][1,2,4]triazolo[1,5-c]pyrimidin-7-yl)-1-(4-(4-(2-(2-methoxyethoxy)ethoxy)phenyl)piperazin-1-yl)-4-methylpentan-1-one]",1.1

# Other lines, results leading:
row,IC50 [nM],SMILES
1,30.6,"CC(C(=O)N1CCN(c2ccc(OCCN(C)C)cc2)CC1)n1ncc2c1nc(N)n1nc(-c3ccco3)nc21 (centres unmarked) [Compound A18, 2-(5-amino-2-(furan-2-yl)-7H-pyrazolo[4,3-e][1,2,4]triazolo[1,5-c]pyrimidin-7-yl)-1-(4-(4-(2-(dimethylamino)ethoxy)phenyl)piperazin-1-yl)propan-1-one]"
2,6.5,"COCCOc1ccc(N2CCN(C(=O)C(Cc3ccccc3)n3ncc4c3nc(N)n3nc(-c5ccco5)nc43)CC2)cc1 (centres unmarked) [Compound A19, 2-(5-amino-2-(furan-2-yl)-7H-pyrazolo[4,3-e][1,2,4]triazolo[1,5-c]pyrimidin-7-yl)-1-(4-(4-(2-methoxyethoxy)phenyl)piperazin-1-yl)-3-phenylpropan-1-one]"
3,4.3,"CCCC(C(=O)N1CCN(c2ccc(F)cc2F)CC1)n1ncc2c1nc(N)n1nc(-c3ccco3)nc21 (centres unmarked) [Compound A20, 2-(5-amino-2-(furan-2-yl)-7H-pyrazolo[4,3-e][1,2,4]triazolo[1,5-c]pyrimidin-7-yl)-1-(4-(2,4-difluorophenyl)piperazin-1-yl)pentan-1-one]"
4,21.6,"COCCOCCOc1ccc(N2CCN(C(=O)C(C3CC3)n3ncc4c3nc(N)n3nc(-c5ccco5)nc43)CC2)cc1 (centres unmarked) [Compound A21, 2-(5-amino-2-(furan-2-yl)-7H-pyrazolo[4,3-e][1,2,4]triazolo[1,5-c]pyrimidin-7-yl)-2-cyclopropyl-1-(4-(4-(2-(2-methoxyethoxy)ethoxy)phenyl)piperazin-1-yl)ethan-1-one]"
5,1.5,"CC(C)CC(C(=O)N1CCN(c2ccc(F)cc2F)CC1)n1ncc2c1nc(N)n1nc(-c3ccco3)nc21 (centres unmarked) [Compound A22, 2-(5-amino-2-(furan-2-yl)-7H-pyrazolo[4,3-e][1,2,4]triazolo[1,5-c]pyrimidin-7-yl)-1-(4-(2,4-difluorophenyl)piperazin-1-yl)-4-methylpentan-1-one]"
6,1.4,"COCCOc1ccc(N2CCN(C(=O)C(CC(C)C)n3ncc4c3nc(N)n3nc(-c5ccco5)nc43)CC2)c(F)c1 (centres unmarked) [Compound A23, 2-(5-amino-2-(furan-2-yl)-7H-pyrazolo[4,3-e][1,2,4]triazolo[1,5-c]pyrimidin-7-yl)-1-(4-(2-fluoro-4-(2-methoxyethoxy)phenyl)piperazin-1-yl)-4-methylpentan-1-one]"
7,4.4,"CCCC(C(=O)N1CCN(c2ccc(OCCOC)cc2F)CC1)n1ncc2c1nc(N)n1nc(-c3ccco3)nc21 (centres unmarked) [Compound A24, 2-(5-amino-2-(furan-2-yl)-7H-pyrazolo[4,3-e][1,2,4]triazolo[1,5-c]pyrimidin-7-yl)-1-(4-(2-fluoro-4-(2-methoxyethoxy)phenyl)piperazin-1-yl)pentan-1-one]"
8,4.5,"CCCC(C(=O)N1CCN(c2c(F)cc(OCCOC)cc2F)CC1)n1ncc2c1nc(N)n1nc(-c3ccco3)nc21 (centres unmarked) [Compound A25, 2-(5-amino-2-(furan-2-yl)-7H-pyrazolo[4,3-e][1,2,4]triazolo[1,5-c]pyrimidin-7-yl)-1-(4-(2,6-difluoro-4-(2-methoxyethoxy)phenyl)piperazin-1-yl)pentan-1-one]"
9,43.8,"COCCOc1ccc(N2CCN(C(=O)C(COC)n3ncc4c3nc(N)n3nc(-c5ccco5)nc43)CC2)cc1 (centres unmarked) [Compound A26, 2-(5-amino-2-(furan-2-yl)-7H-pyrazolo[4,3-e][1,2,4]triazolo[1,5-c]pyrimidin-7-yl)-3-methoxy-1-(4-(4-(2-methoxyethoxy)phenyl)piperazin-1-yl)propan-1-one]"
10,39.4,"COCCOCCOc1ccc(N2CCN(C(=O)C(COC)n3ncc4c3nc(N)n3nc(-c5ccco5)nc43)CC2)cc1 (centres unmarked) [Compound A27, 2-(5-amino-2-(furan-2-yl)-7H-pyrazolo[4,3-e][1,2,4]triazolo[1,5-c]pyrimidin-7-yl)-3-methoxy-1-(4-(4-(2-(2-methoxyethoxy)ethoxy)phenyl)piperazin-1-yl)propan-1-one]"
11,7.6,"COCCOc1ccc(N2CCN(C(=O)C(c3ccc(F)cc3)n3ncc4c3nc(N)n3nc(-c5ccco5)nc43)CC2)cc1 (centres unmarked) [Compound A28, 2-(5-amino-2-(furan-2-yl)-7H-pyrazolo[4,3-e][1,2,4]triazolo[1,5-c]pyrimidin-7-yl)-2-(4-fluorophenyl)-1-(4-(4-(2-methoxyethoxy)phenyl)piperazin-1-yl)ethan-1-one]"
12,20.5,"COCCOc1ccc(N2CCN(C(=O)C(c3ccc(OC)cc3)n3ncc4c3nc(N)n3nc(-c5ccco5)nc43)CC2)cc1 (centres unmarked) [Compound A29, 2-(5-amino-2-(furan-2-yl)-7H-pyrazolo[4,3-e][1,2,4]triazolo[1,5-c]pyrimidin-7-yl)-1-(4-(4-(2-methoxyethoxy)phenyl)piperazin-1-yl)-2-(4-methoxyphenyl)ethan-1-one]"
